Among the data in ChEMBL document CHEMBL1138719, “Tocopherol long chain fatty alcohols decrease the production of TNF-alpha and NO radicals by activated microglial cells” (Bioorg Med Chem Lett, 2004) are Activity values, retold here.

Holding throughout (format): functional, cell-based
Experiment [1] deals with MMGT12. Nature of the experiment: inhibition of LPS-induced TNF-alpha production in mouse MMGT12 cells at 1e-6 M; Major inhibition.
Experiment [2] concerns MMGT12. The experiment in a line: inhibition of LPS-induced TNF-alpha production in mouse MMGT12 cells at 1e-5 M; Major inhibition.
The test system of experiment [3] is MMGT12. Nature of the experiment: inhibition of LPS-induced nitrite accumulation in mouse MMGT12 cells at 1e-5 M concentration; Strong inhibition inhibition.
The subject of experiment [4] is MMGT12. The experiment in a line: inhibition of LPS-induced TNF-alpha production in mouse MMGT12 cells at 1e-5 M to 1e-7 M concentration; No effect.
In experiment [5] the test system is MMGT12. Nature of the experiment: inhibition of LPS-induced TNF-alpha production in mouse MMGT12 cells at 1e-5 M concentration; Slight inhibition.
Experiment [6] deals with MMGT12. The experiment in a line: inhibition of LPS-induced nitrite accumulation in mouse MMGT12 cells at 1e-6 M concentration; Slight inhibition.

The source made the active and inactive calls. The rule behind the calls is not given here.

Regarding `Cc1c(C)c2c(c(C)c1O)CCC(C)(CCCCCCCCCCCCO)O2` (stereo unspecified), the Activity result with MMGT12 [1], in the experiment with MMGT12 [2] and in the experiment with MMGT12 [3] was “Major inhibition” in each case.
On to `Cc1c(C)c2c(c(C)c1O)CCC(C)(CCCCCCCCCCO)O2` (stereo unspecified), for which the result in the experiment with MMGT12 [4] was inactive.
On to `Cc1c(C)c2c(c(C)c1O)CCC(C)(CCCCCCCCCCCCCCO)O2` (stereo unspecified), for which the Activity result in the experiment with MMGT12 [1], in the experiment with MMGT12 [2] and with MMGT12 [3] was “Major inhibition” throughout.
As for `Cc1c(C)c2c(c(C)c1O)CCC(C)(CCCCCCCCCCCCCCCCO)O2` (stereo unspecified), the Activity entry in the experiment on MMGT12 [5], with MMGT12 [6] and in the experiment with MMGT12 [3] was “Slight inhibition” throughout.
For `Cc1c(C)c2c(c(C)c1O)CCC(C)(CCC[C@H](C)CCCC(C)CCCC(C)C)O2` (single isomer, unassigned), the outcome in the experiment with MMGT12 [4] was inactive.
